What all share (assay type): in vivo
Assay [1] concerns APP/PS1 double transgenic AD model mice. The experiment in a line: Pathology of hippocampal CA1 neurons in APP/PS1 mice.
Assay [2] concerns APP/PS1 mice. The experiment in a line: Transmission electron microscopy of hippocampal CA1 neurons and synapses.
Another assay relates to APP/PS1 transgenic mice. The experiment in a line: Social interaction experiment. Conditions: 200 mg/kg. On the procedure:
The social interaction device was composed of a square box (length×width×height: 50 cm×50 cm×15 cm). The behavioral laboratory used diffuse and dim light (25 W) and tried to avoid environmental stress caused by shadows in the experimental area. Before the social interaction experiment, in order to eliminate the influence of unfamiliar environment, each mouse was placed in the experimental device alone to adapt to the environment, 10 min each day for two consecutive days. At the beginning of the test on day 3, the mouse was randomly paired with another strange partner. Two groups of experimental animals were placed in the experimental device at the same time, and the time spent by the mice in the active social interaction behavior was recorded. The test time was 10 min, including sniffing, combing, and scratching or chasing each other. However, passive contact activities (overwhelmed or being ridden by the other mouse, etc.) are not recorded in the social interaction behavior. After each test, 1% bromo geramine was used to disinfect the social interaction device.

In the next assay the test system is microglia. The experiment in a line: Phagocytosis of β-amyloid protein by microglia in APP/PS1 mice. On the procedure: • 4.3.1. Immersing the paraffin sections in xylene to dewax for 15 min, and 2 times in total; then immersing in gradient alcohols with a gradient of 100%, 100%, 95%, 90%, 85% and 75%, each for 5 min. • 4.3.2. Microwave antigen retrieval: immersing the sections in 0.01 M citrate buffer (pH 6.0), heating to boiling in a microwave oven, and repeating twice; after natural cooling, washing 2 times with PBS for 5 min each time. • 4.3.3. Blocking endogenous peroxidase: blotting around the brain tissue with filter paper, outlining the brain tissue with a PAP pen. Adding dropwise the peroxidase blocker, incubating for 10 min at room temperature, and washing 3 times with PBS for 5 min each time. • 4.3.4. Adding dropwise normal serum blocking solution diluted with 0.01M PBS at a ratio of 1:10, standing at room temperature for 20 min, shaking off the excess liquid and not washing. • 4.3.5. Adding dropwise the primary antibody diluted with 0.01 M PBS, keeping at 4° C. overnight; washing 3 times with 0.01 M PBS for 2 min each time. • 4.3.6. […] Sealing with water-soluble sealant; observing by fluorescence microscopy. […] Washing 3 times with the PBS on a shaker in a dark for 3 min each time; sealing with the water-soluble sealant, and observing by fluorescence microscope. […]

The subject of assay [3] is APP/PS1 mice. The experiment in a line: Patch clamp experiment, LTP (synaptic function).

This note sets out measurements from patent US10399931B2, “Octahydroanthracene compound, preparation method and application thereof” (SHANDONG XINHUA PHARMACEUTICAL CO., LTD., priority 2016, dated 2019).

Take `CC1(C)CCC(C)(C)c2c1cc1c(c2NC(=O)c2ccc(NC(=O)NCCN)cc2)C(C)(C)CCC1(C)C` [OAB-14, 1-(2-amino) ethyl-3-{4-[(1,1,4,4,5,5,8,8-octamethyl-1,2,3,4,5,6,7,8-octahydro-9-anthryl)carbamoyl]phenyl} urea]: the “Morphology of hippocampal CA1 neurons” value in assay [1] (100 mg/kg group) is “closely arranged, no visible edema and nuclear pyknosis”; in assay [1] (200 mg/kg group), “closely arranged, no visible edema and nuclear pyknosis”. Besides, the “Synaptic ultrastructure of the hippocampus (TEM)” value with APP/PS1 mice [2] (100 mg/kg group) and in the assay on APP/PS1 mice [2] (200 mg/kg group) was “significantly improved” each time. Further, the “Ultrastructure of hippocampal CA1 neurons (TEM)” value in the assay on APP/PS1 mice [2] (dose-dependent, especially 200 mg/kg group) is recorded as “significantly improved”. Moreover, the “Active contact time vs model group” value with APP/PS1 transgenic mice is on record as “significantly increased”. In addition, the “Phagocytosis of microglia in the central nervous system to β-amyloid protein” value with microglia was “promoting the phagocytosis”. The LTP entry with APP/PS1 mice [3] (100 mg/kg group) and with APP/PS1 mice [3] (200 mg/kg group) was “significantly enhanced” throughout.
